Data set [1] relates to MCF-10A. Nature of the data set: Cell cycle analysis by propidium iodide staining, MCF-10A. As to conditions: for change of %G1 vs control, MCF-10A / change of %G2 vs control, MCF-10A / change of %S vs control, MCF-10A: control = 100%, 24 h; for %G1, MCF-10A / %G2, MCF-10A / %S, MCF-10A: treated at IC50, 24 h. It is filed as cell-based, human. How it is done: Our study continued with the examination of the effect of the newly synthesized compounds’ IC50 values on cell cycle progression. The cell aliquots were collected, and FACS analyses were used to detect the effects of cell treatments with the selected compounds (2, 4, and 5). A propidium iodide staining assay was performed.
The changes in the cell cycle distribution in % (G1, S, and G2 phases), based on the graphical figures A–C, were calculated and are given in Table 4.
The cells were trypsinized, suspended in medium + 10% FCS, and centrifuged (1000 rpm, 5 min); then, the pellet was suspended in PBS (1 mL) and fixed with EtOH. The cells were suspended in 2.5 mL pre-cold 70% EtOH and incubated on ice for 15 min. The staining procedure was as follows: the pellet was suspended in a 500 μL PI-solution in PBS and 0.1 mg/mL RNase A, and 0.05% Triton X-100 was added. After incubation for 10 min at 37 °C, the cells were transferred to the flow cytometer and cell fluorescence was measured. The samples were measured by flow cytometry (LSR II, BD Biosciences, Franklin Lakes, NJ, USA) and analyzed using BD FACS DIVA software v. 6.1.3 (BD Biosciences).

The subject of data set [2] is MCF-10A. Nature of the data set: MTT anti-proliferative test, MCF-10A. It is filed as cell-based. As to conditions: Homo sapiens. An excerpt: The MCF-10A cell line (normal human mammary epithelial cells) served as a reference control.
All breast cell lines (MCF-10A, MCF-7, and MDA-MB-231) were purchased from the American Type Culture Collection—ATCC (Manassas, VA, USA). The MCF-7 and MDA-MB-231 were cultivated in Dulbecco’s modified Eagle’s medium (DMEM) and supplemented with 10% fetal bovine serum (FBS), 1% sodium pyruvate, and 1% MEM non-essential amino acids (NEAA) without antibiotics. The non-tumorigenic breast cell line (MCF-10A) was cultivated in DMEM medium (Sigma-Aldrich, St. Louis, MO, USA) and supplemented with 10% FBS, 1% sodium pyruvate, 1% non-essential amino acids (NEAA), 20 ng/mL human epithelia growth factor (hEGF), 10 μg/mL insulin, and 0.5 μg/mL hydrocortisone without antibiotics. All cell lines were maintained in a humidified atmosphere, with 5% CO2 at 37 °C.
Using the standard MTT-dye reduction assay described by Mosmann, the anti-proliferative activity was tested. The method is based on the metabolism of the tetrazolium salt MTT to insoluble formazan. The formazan absorption was registered using a microplate reader at λ = 540 nm. The measured absorption is an indicator of cell viability and metabolic activity. Anti-proliferative activities were expressed as IC50 values (concentrations required for 50% inhibition of cell growth), calculated using non-linear regression analysis (GraphPad Software, San Diego, CA, USA).
On the technique in general: Formazan colour is commonly taken as a measure of viable cells.

The subject of the next data set is BALB 3T3 cells. Briefly: in vitro 3T3 NRU test, cytotoxicity. As to conditions: for IC50: BALB 3T3, value in brackets. It is filed as cell-based, mouse. How it is done: Compounds 2–5 were studied for cytotoxicity/phototoxicity by an in vitro 3T3 NRU-test. The cell line BALB 3T3, clone A31 (mouse embryo fibroblasts), was incubated with the test compounds at a concentration from 15 to 4000 µg/mL for 24 h at 37 °C, 5% CO2, and 95% humidity. The cytotoxicity and phototoxicity were expressed in percentages relative to the negative control determined. […] Based on the dose–response curves, the CC50/PC50 values (50% cytotoxic/phototoxic concentration) were calculated by nonlinear regression analysis (Table 1). The CC50 values can be used to calculate the PIF (photo-irritancy factor) for each test compound according to the following formula: PIF = CC50/PC50.
BALB/3T3 cells were cultured in 75 cm^2 tissue culture flasks in DMEM, 10% FBS, 2 mM glutamine, and antibiotics (penicillin 100 U/mL and streptomycin-100 µg/mL) at 37 °C, 5% CO2, and 90% relative humidity. Cytotoxicity/phototoxicity was assessed by a validated BALB/3T3 clone A31 neutral red uptake assay (3T3 NRU test). Briefly, cells were plated in a 96-well microtiter plate at a density of 1 × 10^4 cells/100 µL/well and incubated for 24 h. A wide concentration range was applied for the test compounds. For the phototoxicity tests, 96-well plates were irradiated with a dose of 2.4 J/cm^2, and the cells were incubated for an additional 24 h. After treatment with neutral red medium, washing, and treatment with the ethanol/acetic acid solution, the absorption was measured on a TECAN microplate reader (TECAN, Grödig, Austria) at a wavelength of 540 nm. The light source which we used was a light-emitting diode (LED) matrix—an artificial solar light simulator Helios-iO, model LE-9ND55-H—5500K (SERIC Ltd., Tokyo, Japan).
Cytotoxicity/phototoxicity were expressed as CC50/PC50 values (concentrations required for 50% cytotoxicity/phototoxicity), calculated using non-linear regression analysis (GraphPad Software GraphPad Prism 9.5.1, San Diego, CA, USA). The CC50 values were used to calculate the PIF (photo-irritancy factor) for each test substance, according to the following formula: […]

[3] abbreviates: read-out: IC50 MCF-10A (converted).
Setting [4] is: read-out: IC50 of Mean ± SD, Anti-Proliferative Activity MCF-10A.

The values that follow come from PMC10489817, “2-Alkyl-Substituted-4-Amino-Thieno[2,3-d]Pyrimidines: Anti-Proliferative Properties to In Vitro Breast Cancer Models” (Molecules, 2023).

One may read the IC50 as the concentration that gives 50% inhibition.

Where two headings read alike, the source gives them in different places.

For the molecule `CCOC(=O)c1sc2nc(C)nc(N)c2c1C` [Compound 5, Ethyl 4-Amino-2,5-Dimethyl-Thieno[2,3-d]Pyrimidine-6-Carboxylate], in the data set with MCF-10A [1], the “change of %G1 vs control, MCF-10A” value is listed as “+5.52%”; the “change of %G2 vs control, MCF-10A” value was “+24.657%”; the “change of %S vs control, MCF-10A” value is given as −13.9%; the “%G1, MCF-10A” value amounted to 86%. In the data set with MCF-10A [1], the “%G2, MCF-10A” value is reported as 8.72% and the “%S, MCF-10A” value stood at 7.92%. In addition, the IC50 with MCF-10A [2] (setting [3]) was 2500 µM. In addition, the IC50 in the data set on MCF-10A [2] (setting [4]) came out at 618 ± 29.7 µg/mL.
For the molecule `CCOC(=O)c1sc2nc(CC)nc(N)c2c1C` [Compound 4, Ethyl 4-Amino-2-Ethyl-5-Methylthieno[2,3-d]Pyrimidine-6-Carboxylate], the “IC50 of Mean ± SD, Cytotoxicity” value in the data set on BALB 3T3 cells (BALB 3T3, 24 h, NRU, no irradiation (CC50)) came out at 1678 ± 70.4 µg/mL. For the same molecule, the IC50 with BALB 3T3 cells is 6400 µM. In the data set with MCF-10A [1], the “change of %G1 vs control, MCF-10A” value was “+4.9%”; the “change of %G2 vs control, MCF-10A” value is given as “+15.4%”; the “change of %S vs control, MCF-10A” value is −29.0%; the “%G1, MCF-10A” value came out at 85.5%. For the same molecule, in the data set on MCF-10A [1], the “%G2, MCF-10A” value stood at 8.108% and the “%S, MCF-10A” value is 6.53%. Also, the IC50 in the data set on MCF-10A [2] (setting [3]) is 1400 µM. In the data set with MCF-10A [2] (setting [4]), the IC50 was 367 ± 17.8 µg/mL.
Consider `CCOC(=O)Cc1nc(N)c2c(C)c(C(=O)OCC)sc2n1` [Compound 2, Ethyl 4-Amino-2-(2-Ethoxy-2-Oxoethyl)-5-Methylthieno[2,3-d]Pyrimidine-6-Carboxylate], for which, in the data set with BALB 3T3 cells, the midpoint of inhibition, the IC50, lay at 5400 µM. For the same molecule, in the data set on MCF-10A [1], the “change of %G1 vs control, MCF-10A” value is recorded as “+5.439%”; the “change of %G2 vs control, MCF-10A” value was −6.42%; the “change of %S vs control, MCF-10A” value is given as −20.8%; the “%G1, MCF-10A” value is 85.9%. In the data set with MCF-10A [1], the “%G2, MCF-10A” value came to 6.55% and the “%S, MCF-10A” value is given as 7.328%. Moreover, the IC50 in the data set on MCF-10A [2] (setting [3]) was 1700 µM. In addition, in the data set with MCF-10A [2] (setting [4]), the IC50 turned out to be 503 ± 16.7 µg/mL.
